Laboratory results from PMC5766233, “Ternary copper(II) complex: NCI60 screening, toxicity studies, and evaluation of efficacy in xenograft models of nasopharyngeal carcinoma” (PLoS ONE, 2018).
Read-outs that look alike come from different tables or passages of the source.

Legend:
[1] = test system: CYP isoforms 1A2, 2C9, 2C19, 2D6, 2B6, 2C8 and 3A4; experiment: CYP450 inhibition assay, summary over all tested isoforms; format: in vitro ADME, human; conditions: pooled probe substrates; read-out: IC50 values against all tested isoforms
Method: (§1) In the CYP inhibition assay, human liver microsomes were incubated with the Cu(II) complex or reference standard. The inhibitory effects of these compounds were investigated against the major CYP isoforms namely 1A2, 2C9, 2C19, 2D6, 2B6, 2C8 and 3A4 with their respective isoform probe substrates in one reaction mixture (pooled probe substrate format using LC-MS/MS).
Pooled human liver microsomes (Sekisui Xeno Tech, LLC., Kansas City, KS, USA) were incubated with different concentrations of Cu(II) complex or reference standards in buffer containing 0.1% DMSO for 10 min at 37°C and the residual enzyme activity was measured using pooled probe substrates method by pooled LC-MS/MS. Briefly, incubation mixtures were prepared in a total volume of 200 μL with final component concentrations as follows: 0.1 M potassium phosphate buffer (pH 7.4), 1.5 mM NADPH, and 0.25 mg/ml HLM. […] After 20 min of incubation, the reactions were terminated by addition of 200 μL ice-cold acetonitrile (Rankem, Avantor Performance Materials India Limited, Andhra Pradesh, India) containing telmisartan and carbamazepine as internal standards (all probe substrates and standards were from Sigma Aldrich). […] The percent inhibition was calculated using the following equation: %Inhibition=100‑[(activityintestwells/activityinbasalcontrolwells)×100]

[2] = test system: cervical, ovarian, lung, breast, lymphoma, leukemia, colorectal carcinoma and NPC cell lines; parameters: method as in PMID 24549332; conditions: 24 h; HeLa, SKOV3, A549, PC9, MCF7, Namalwa, HL60, SW480, SW48, HCT118, HONE1, HK1, C666-1; cited from earlier work
[3] = test system: NCI60 human cancer cell line panel
CYP 2C8 = biological target: T1, CYP 2C8 (Homo sapiens, UniProt P10632); experiment: CYP450 inhibition assay, pooled human liver microsomes; conditions: read-out: IC50 CYP 2C8; probe amodiaquine
T1 sequence (P10632 1-490): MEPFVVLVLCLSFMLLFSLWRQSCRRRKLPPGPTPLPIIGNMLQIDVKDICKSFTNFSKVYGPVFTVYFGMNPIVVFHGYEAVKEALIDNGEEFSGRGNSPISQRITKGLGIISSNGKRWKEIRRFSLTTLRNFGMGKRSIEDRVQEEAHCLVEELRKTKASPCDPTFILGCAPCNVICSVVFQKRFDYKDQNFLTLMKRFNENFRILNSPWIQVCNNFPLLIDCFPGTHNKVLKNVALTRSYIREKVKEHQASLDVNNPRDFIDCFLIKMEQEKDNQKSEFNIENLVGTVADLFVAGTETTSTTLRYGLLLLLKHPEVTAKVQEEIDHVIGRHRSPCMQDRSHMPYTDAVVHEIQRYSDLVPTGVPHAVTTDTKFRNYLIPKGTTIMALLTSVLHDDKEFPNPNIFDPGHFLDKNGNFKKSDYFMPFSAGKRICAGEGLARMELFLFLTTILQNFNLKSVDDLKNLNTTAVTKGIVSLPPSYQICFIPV
Method: as §1
(§2) Pooled human liver microsomes (Sekisui Xeno Tech, LLC., Kansas City, KS, USA) were incubated with different concentrations of Cu(II) complex or reference standards in buffer containing 0.1% DMSO for 10 min at 37°C and the residual enzyme activity was measured using pooled probe substrates method by pooled LC-MS/MS. Briefly, incubation mixtures were prepared in a total volume of 200 μL with final component concentrations as follows: 0.1 M potassium phosphate buffer (pH 7.4), 1.5 mM NADPH, and 0.25 mg/ml HLM. […] After 20 min of incubation, the reactions were terminated by addition of 200 μL ice-cold acetonitrile (Rankem, Avantor Performance Materials India Limited, Andhra Pradesh, India) containing telmisartan and carbamazepine as internal standards (all probe substrates and standards were from Sigma Aldrich). Each reaction mixture was centrifuged at 3,500 rpm for 5 min and the supernatant was subjected to LC-MS/MS analysis. The percent inhibition was calculated using the following equation: %Inhibition=100‑[(activityintestwells/activityinbasalcontrolwells)×100]

CYP 2B6 = biological target: T2, CYP 2B6 (Homo sapiens, UniProt P20813); experiment: as above; conditions: read-out: IC50 CYP 2B6; probe bupropion
T2 sequence (P20813 1-491): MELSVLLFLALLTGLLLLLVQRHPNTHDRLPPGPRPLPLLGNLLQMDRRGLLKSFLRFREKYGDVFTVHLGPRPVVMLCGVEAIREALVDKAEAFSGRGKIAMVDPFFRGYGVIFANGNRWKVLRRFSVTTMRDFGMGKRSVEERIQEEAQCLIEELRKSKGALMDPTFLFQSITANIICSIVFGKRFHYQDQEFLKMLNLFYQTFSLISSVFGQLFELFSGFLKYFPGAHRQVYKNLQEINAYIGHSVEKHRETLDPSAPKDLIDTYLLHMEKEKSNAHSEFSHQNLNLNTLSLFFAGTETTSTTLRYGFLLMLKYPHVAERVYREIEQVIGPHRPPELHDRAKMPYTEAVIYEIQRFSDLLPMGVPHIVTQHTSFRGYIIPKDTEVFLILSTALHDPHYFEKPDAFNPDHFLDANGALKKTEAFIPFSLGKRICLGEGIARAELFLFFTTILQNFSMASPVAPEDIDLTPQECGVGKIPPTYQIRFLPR
Method: as §1, §2

CYP 2C19 = CYP 2C19 (Homo sapiens, UniProt P33261); experiment: as above; conditions: read-out: IC50 CYP 2C19; probe S-mephenytoin
CYP 2C19, sequence (P33261 whole entry): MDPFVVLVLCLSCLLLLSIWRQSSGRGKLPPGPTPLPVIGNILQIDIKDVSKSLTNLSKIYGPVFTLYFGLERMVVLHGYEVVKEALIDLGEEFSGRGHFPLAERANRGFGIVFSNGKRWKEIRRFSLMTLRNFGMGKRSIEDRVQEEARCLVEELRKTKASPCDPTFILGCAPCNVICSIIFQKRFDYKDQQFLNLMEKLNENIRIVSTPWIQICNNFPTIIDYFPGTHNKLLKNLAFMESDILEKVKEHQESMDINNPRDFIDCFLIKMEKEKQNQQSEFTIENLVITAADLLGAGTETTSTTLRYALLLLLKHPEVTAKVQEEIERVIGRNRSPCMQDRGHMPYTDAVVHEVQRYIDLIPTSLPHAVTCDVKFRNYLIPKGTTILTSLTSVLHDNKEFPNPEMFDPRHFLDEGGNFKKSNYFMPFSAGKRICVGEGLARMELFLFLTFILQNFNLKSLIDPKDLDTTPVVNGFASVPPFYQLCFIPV
Method: as §1, §2

rat primary hepatocytes = experiment: Cytotoxicity in rat primary hepatocytes (resazurin); conditions: 72 h

Question: For `CC(C)(N)C(=O)[O-].O.O=[N+]([O-])[O-].[Cu+2].c1cnc2c(c1)ccc1cccnc12` [Cu(II) complex, [Cu(phen)(C-dmg)(H2O)]NO3], which IC50 [1] is on record?
Answer: Its IC50 is 5 to 10 µM.

Question: What about the IC50 [2] of the same compound?
Answer: Its IC50 is 1.7 to 19 µM.

Question: And the CC50 [3]?
Answer: Its CC50 is over 100 µM.

Question: What about the “cytotoxicity compared with cisplatin (mean LC50)” value ([3]; NCI60 panel) of the same compound?
Answer: The value was “fivefold more cytotoxic”.

Question: What about the CC50 ([3]; read-out: LC50, all renal cell lines) of the same compound?
Answer: Its CC50 is 1 to 10 µM.

Question: What about the CC50 ([3]; read-out: LC50, leukemia panel (CCRF-CEM, HL-60(TB), K-562, MOLT-2, RPMI-8226, SR)) of the same compound?
Answer: The CC50 was over 100 µM.

Question: What about the GI50 ([3]; read-out: mean GI50, NCI60 panel, 48 h) of the same compound?
Answer: Its GI50 is 1.51 µM.

Question: And the CC50 ([3]; read-out: mean LC50, NCI60 panel, 48 h)?
Answer: The CC50 was 9.12 µM.

Question: What about the IC50 (CYP 2C8) of the same compound?
Answer: Its IC50 is 10.3 µM.

Question: And the IC50 (CYP 2B6)?
Answer: Its IC50 is 7.59 µM.

Question: And the IC50 (CYP 2C19)?
Answer: The IC50 was 10.3 µM.

Question: And the “concentrations at which cytotoxicity is exhibited” value (rat primary hepatocytes)?
Answer: Its value is “over 3 μM”.

Question: What about the IC50 (rat primary hepatocytes; read-out: IC50 (cytotoxic concentration that kills 50% of the cells), resazurin assay) of the same compound?
Answer: Its IC50 is 4.7 µM.
